Reference: ChEMBL document CHEMBL4402509, “Betulinic acid induces apoptosis and inhibits metastasis of human colorectal cancer cells in vitro and in vivo” (Bioorg Med Chem, 2019)
Calls of active or inactive are those of the source. No cut-off for these calls is given here.

Tests used:
HCT-116 [1] = assay: Induction of apoptosis in human HCT116 cells assessed as early apoptotic cell level at 20 ug/ml incubated for 48 hrs by annexin-V/PI staining based flow cyclometry (reference value: 1.84%); assay type: functional
HCT-116 [2] = assay: Induction of apoptosis in human HCT116 cells assessed as increase in Bax protein expression incubated for 48 hrs by Western blot analysis; assay type: functional, cell-based
HCT-116 [3] = assay: Induction of apoptosis in human HCT116 cells assessed as necrotic cell level at 10 ug/ml incubated for 48 hrs by annexin-V/PI staining based flow cyclometry (reference value: 4.9%); assay type: functional
HCT-116 [4] = assay: Induction of mitochondrial membrane potential loss in human HCT116 cells at 20 ug/ml incubated for 48 hrs by RH123.dye based FCM analysis (reference value: 6.37%); assay type: functional
HCT-116 [5] = assay: Antitumor activity against human HCT116 cells xenografted in BALB/c mouse assessed as reduction in Ki-67 positive cells in tumor at 10 to 20 mg/kg, ip dosed daily for 21 days starting from 1 day post implantation and measured every three days by immunohistochemistry analysis; assay type: functional, organism-based
HCT-116 [6] = assay: Antitumor activity against human HCT116 cells xenografted in BALB/c mouse assessed as reduction in MMP2 positive cells in tumor at 10 to 20 mg/kg, ip dosed daily for 21 days starting from 1 day post implantation and measured every three days by immunohistochemistry analysis; assay type: functional, organism-based
HCT-116 [7] = assay: Induction of ROS generation in human HCT116 cells at 5 ug/ml incubated for 48 hrs by DCFH-DA staining based FCM analysis (reference value: 4.44%); assay type: functional
[8] = Toxicity in BALB/c mouse xenografted with human HCT116 cells assessed as induction of alterations in heart at 10 to 20 mg/kg, ip dosed daily for 21 days starting from 1 day post implantation and measured every three days by hematoxylin and eosin staining based histopathological analysis; assay type: organism-based; details: in vivo
DLD-1 [9] = assay: Inhibition of cell motility associated protein expression in human DLD1 cells assessed as effect on MMP9 expression at 5 to 20 ug/ml incubated for 48 hrs by Western blot analysis; assay type: functional, cell-based
HCT-116 [10] = assay: Induction of mitochondrial membrane potential loss in human HCT116 cells at 5 to 20 ug/ml incubated for 48 hrs by RH123.dye based FCM analysis; assay type: functional, cell-based
HCT-116 [11] = assay: Induction of apoptosis in human HCT116 cells assessed as necrotic cell level at 5 ug/ml incubated for 48 hrs by annexin-V/PI staining based flow cyclometry (reference value: 4.9%); assay type: functional
[12] = Toxicity in BALB/c mouse xenografted with human HCT116 cells assessed as induction of alterations in spleen at 10 to 20 mg/kg, ip dosed daily for 21 days starting from 1 day post implantation and measured every three days by hematoxylin and eosin staining based histopathological analysis; assay type: organism-based; details: in vivo
HCT-116 [13] = assay: Induction of apoptosis in human HCT116 cells assessed as viable cell level at 20 ug/ml incubated for 48 hrs by annexin-V/PI staining based flow cyclometry (reference value: 81.8%); assay type: functional
DLD-1 [14] = assay: Inhibition of cell migration in human DLD1 cells at 5 to 20 ug/ml incubated for 48 hrs by Transwell migration assay; assay type: functional, cell-based
HCT-116 [15] = assay: Induction of apoptosis in human HCT116 cells assessed as early apoptotic cell level at 5 ug/ml incubated for 48 hrs by annexin-V/PI staining based flow cyclometry (reference value: 1.84%); assay type: functional
HCT-116 [16] = assay: Inhibition of colony formation of human HCT116 cells assessed as reduction in clonogenic ability at 5 to 20 ug/ml incubated for 10 to 14 days by crystal violet staining based assay; assay type: functional, cell-based
HCT-116 [17] = assay: Antitumor activity against human HCT116 cells xenografted in BALB/c mouse assessed as inhibition of tumor growth at 10 to 20 mg/kg, ip dosed daily for 21 days starting from 1 day post implantation and measured every three days; assay type: functional, organism-based
DLD-1 [18] = assay: Inhibition of cell motility associated protein expression in human DLD1 cells assessed as effect on TIMP2 expression at 5 to 20 ug/ml incubated for 48 hrs by Western blot analysis; assay type: functional, cell-based
HCT-116 [19] = assay: Induction of mitochondrial membrane potential loss in human HCT116 cells at 5 ug/ml incubated for 48 hrs by RH123.dye based FCM analysis (reference value: 6.37%); assay type: functional
[20] = Toxicity in BALB/c mouse xenografted with human HCT116 cells assessed as induction of alterations in lung at 10 to 20 mg/kg, ip dosed daily for 21 days starting from 1 day post implantation and measured every three days by hematoxylin and eosin staining based histopathological analysis; assay type: organism-based; details: in vivo
HCT-116 [21] = assay: Induction of apoptosis in human HCT116 cells assessed as reduction in Bcl2 protein expression incubated for 48 hrs by Western blot analysis; assay type: functional, cell-based
HCT-116 [22] = assay: Induction of apoptosis in human HCT116 cells incubated for 48 hrs by annexin-V/PI staining based flow cyclometry; assay type: functional, cell-based
HCT-116 [23] = assay: Induction of apoptosis in human HCT116 cells assessed as necrotic cell level at 20 ug/ml incubated for 48 hrs by annexin-V/PI staining based flow cyclometry (reference value: 4.9%); assay type: functional
DLD-1 [24] = assay: Inhibition of cell invasion in human DLD1 cells at 5 to 20 ug/ml incubated for 48 hrs by crystal violet staining based inverted microscopy; assay type: functional
SW480 = assay: Inhibition of colony formation of human SW480 cells assessed as reduction in clonogenic ability at 5 to 20 ug/ml incubated for 10 to 14 days by crystal violet staining based assay; assay type: functional, cell-based
DLD-1 [25] = assay: Inhibition of colony formation of human DLD1 cells assessed as reduction in clonogenic ability at 5 to 20 ug/ml incubated for 10 to 14 days by crystal violet staining based assay; assay type: functional, cell-based
DLD-1 [26] = assay: Inhibition of cell motility associated protein expression in human DLD1 cells assessed as effect on MMP2 expression at 5 to 20 ug/ml incubated for 48 hrs by Western blot analysis; assay type: functional, cell-based
HCT-116 [27] = assay: Induction of apoptosis in human HCT116 cells assessed as late apoptotic cell level at 5 ug/ml incubated for 48 hrs by annexin-V/PI staining based flow cyclometry (reference value: 5.11%); assay type: functional
HCT-116 [28] = assay: Induction of apoptosis in human HCT116 cells assessed as increase in cleaved capse-3 protein level incubated for 48 hrs by Western blot analysis; assay type: functional, cell-based
HCT-116 [29] = assay: Induction of apoptosis in human HCT116 cells assessed as late apoptotic cell level at 20 ug/ml incubated for 48 hrs by annexin-V/PI staining based flow cyclometry (reference value: 5.11%); assay type: functional
[30] = Toxicity in BALB/c mouse xenografted with human HCT116 cells assessed as effect on body weight at 10 to 20 mg/kg, ip dosed daily for 21 days starting from 1 day post implantation and measured every three days; assay type: organism-based; details: in vivo
[31] = Toxicity in BALB/c mouse xenografted with human HCT116 cells assessed as induction of alterations in liver at 10 to 20 mg/kg, ip dosed daily for 21 days starting from 1 day post implantation and measured every three days by hematoxylin and eosin staining based histopathological analysis; assay type: organism-based; details: in vivo
HCT-116 [32] = assay: Induction of ROS generation in human HCT116 cells at 20 ug/ml incubated for 48 hrs by DCFH-DA staining based FCM analysis (reference value: 4.44%); assay type: functional
[33] = Toxicity in BALB/c mouse xenografted with human HCT116 cells assessed as induction of alterations in kidney at 10 to 20 mg/kg, ip dosed daily for 21 days starting from 1 day post implantation and measured every three days by hematoxylin and eosin staining based histopathological analysis; assay type: organism-based; details: in vivo
HCT-116 [34] = assay: Induction of mitochondrial membrane potential loss in human HCT116 cells at 10 ug/ml incubated for 48 hrs by RH123.dye based FCM analysis (reference value: 6.37%); assay type: functional
HCT-116 [35] = assay: Induction of apoptosis in human HCT116 cells assessed as late apoptotic cell level at 10 ug/ml incubated for 48 hrs by annexin-V/PI staining based flow cyclometry (reference value: 5.11%); assay type: functional
HCT-116 [36] = assay: Induction of apoptosis in human HCT116 cells assessed as viable cell level at 10 ug/ml incubated for 48 hrs by annexin-V/PI staining based flow cyclometry (reference value: 81.8%); assay type: functional
HCT-116 [37] = assay: Induction of ROS generation in human HCT116 cells at 5 to 20 ug/ml incubated for 48 hrs by DCFH-DA staining based FCM analysis; assay type: functional, cell-based
HCT-116 [38] = assay: Induction of apoptosis in human HCT116 cells assessed as viable cell level at 5 ug/ml incubated for 48 hrs by annexin-V/PI staining based flow cyclometry (reference value: 81.8%); assay type: functional
HCT-116 [39] = assay: Induction of apoptosis in human HCT116 cells assessed as early apoptotic cell level at 10 ug/ml incubated for 48 hrs by annexin-V/PI staining based flow cyclometry (reference value: 1.84%); assay type: functional
HCT-116 [40] = assay: Induction of ROS generation in human HCT116 cells at 10 ug/ml incubated for 48 hrs by DCFH-DA staining based FCM analysis (reference value: 4.44%); assay type: functional

For `C=C(C)[C@@H]1CC[C@]2(C(=O)O)CC[C@]3(C)[C@H](CC[C@@H]4[C@@]5(C)CC[C@H](O)C(C)(C)[C@@H]5CC[C@]43C)[C@@H]12` [BETULINIC ACID], which Activity (HCT-116 [1]) is on record?
The Activity was 6.72%.

And the Activity (HCT-116 [2])?
The Activity was “Dose-dependent effect”.

And the Activity (HCT-116 [3])?
The Activity was 10.9%.

What about the Activity (HCT-116 [4]) of the same molecule?
Its Activity is 21.3%.

What about the inhibition (HCT-116 [5]) of the same molecule?
Its inhibition is “Active”.

And the inhibition (HCT-116 [6])?
Its inhibition is “Active”.

And the Activity (HCT-116 [7])?
The Activity was 9.58%.

And the Activity [8]?
The Activity was “Non-Toxic”.

And the inhibition (DLD-1 [9])?
Its inhibition is “Active”.

And the Activity (HCT-116 [10])?
Its Activity is “Active”.

And the Activity (HCT-116 [11])?
Its Activity is 7.94%.

And the Activity [12]?
Its Activity is “Non-Toxic”.

What about the Activity (HCT-116 [13]) of the same molecule?
Its Activity is 53.5%.

And the Activity (DLD-1 [14])?
The Activity was “Active”.

And the Activity (HCT-116 [15])?
The Activity was 1.63%.

What about the inhibition (HCT-116 [16]) of the same molecule?
Its inhibition is “Active”.

And the TGI (HCT-116 [17])?
Its TGI is “Active”.

What about the inhibition (DLD-1 [18]) of the same molecule?
Its inhibition is “Active”.

And the Activity (HCT-116 [19])?
Its Activity is 17.2%.

What about the Activity [20] of the same molecule?
The Activity was “Non-Toxic”.

And the Activity (HCT-116 [21])?
The Activity was “Dose-dependent effect”.

And the Activity (HCT-116 [22])?
Its Activity is “Dose-dependent effect”.

What about the Activity (HCT-116 [23]) of the same molecule?
Its Activity is 14.5%.

And the Activity (DLD-1 [24])?
Its Activity is “Active”.

What about the inhibition (SW480) of the same molecule?
The inhibition was “Active”.

What about the inhibition (DLD-1 [25]) of the same molecule?
The inhibition was “Active”.

What about the inhibition (DLD-1 [26]) of the same molecule?
The inhibition was “Active”.

What about the Activity (HCT-116 [27]) of the same molecule?
Its Activity is 11.5%.

What about the Activity (HCT-116 [28]) of the same molecule?
Its Activity is “Dose-dependent effect”.

What about the Activity (HCT-116 [29]) of the same molecule?
The Activity was 25.2%.

And the Activity [30]?
Its Activity is “Non-Toxic”.

What about the Activity [31] of the same molecule?
Its Activity is “Non-Toxic”.

And the Activity (HCT-116 [32])?
The Activity was 18.9%.

And the Activity [33]?
The Activity was “Non-Toxic”.

What about the Activity (HCT-116 [34]) of the same molecule?
Its Activity is 19.5%.

And the Activity (HCT-116 [35])?
The Activity was 13%.

And the Activity (HCT-116 [36])?
The Activity was 73.8%.

What about the Activity (HCT-116 [37]) of the same molecule?
The Activity was “Dose-dependent effect”.

What about the Activity (HCT-116 [38]) of the same molecule?
Its Activity is 79%.

And the Activity (HCT-116 [39])?
Its Activity is 2.33%.

And the Activity (HCT-116 [40])?
Its Activity is 13.6%.
